Assay results taken from patent US4870160A, “Polypeptides with laminin activity” (Regents of the University of Minnesota, priority 1987, dated 1989).
Peptide text beside a SMILES is read from it.

Tests used:
[1] = system: Bovine aortic endothelial cells; test: Aortic endothelial cell adhesion assay (Example 5); type: cell-based; details: 0.1; 1.0; and 10.0 μg/per well adsorbed, 120 minutes at 37° C, FIG. 9
Description: Bovine aortic endothelial cells were isolated according to the following protocol. Aortas were obtained from a local slaughterhouse, washed in cold phosphate buffered saline (PBS) (136 mM NaCl, 2.6 mM KCl, 15.2 mM Na2HP04, pH 7.2) and processed within 2 hours. Crude collagenase (CLS III, 125-145 units per mg dry weight, Cooper Biomedical) was used at 2 mg/ml in Dulbecco's modified Eagle's medium (DMEM) (GIBCO). The vessel was clamped at the distal end, filled with the collagenase-PBS solution and digestion was carried out for 10 minutes. The lumenal contents were harvested, followed by the addition of fresh collagenase for two additional 10-minute periods. The enzyme-cell suspensions were added to an equal volume of DMEM containing 10% fetal bovine serum (FBS) to inhibit the enzyme and spun in a centrifuge at 400×g for 10 minutes. The resulting cell pellet was resuspended in DMEM containing 10% FBS, 100 units/ml of penicillin G, 100 μg/ml of streptomycin and 100 μg/ml of crude fibroblast growth factor. Cells are cultured in 75 cm^2 flasks in a humidified 5% CO2 atmosphere at 37° C. Cultures were fed twice a week with the same medium and cells were used in assays when approximately 75% confluent. Cells were identified as endothelial in nature by characteristic cobblestone morphology, contact inhibition of growth upon reaching confluency, and positive immunofluorescent staining for factor VIII:RAg (Miles Laboratories) [S. Schwartz, In Vitro, 14, 966 (1978)]. Only endothelial cells, megakaryocytes and platelets are known to contain the factor VIII:RAg. This method routinely gives a high yield of endothelial cells with little contamination (less than 5%) by smooth muscle cells, pericytes or fibroblasts as judged by phase contrast microscopy as well as by immunostaining.
Adhesion was measured using 96 well microtiter plates adsorbed with three different amounts (0.1; 1.0; and 10.0 μg/per well) of peptides 9, 11-18, BSA and laminin. Cultures of cells which were 60-80% confluent were metabolically labeled for 24 hours with the addition of 3 mCi/ml of ^3 H-amino acid mixture. On the day of the assay, the cells were harvested by trypsinization, the trypsin was inhibited by the addition of serum, and the cells were washed free of this mixture and resuspended in DMEM buffered with HEPES at pH 7.2. The adhesion medium also contained 2 mg/ml BSA. The cells were adjusted to a concentration of 3-4×10^4 /ml and 100 μls of this cell suspension was added to the wells. The assay mixture was then incubated at 37° C for 120 minutes. […] The solubilized cells were then quantitated using a liquid scintillation counter. […]

peptide 13 = molecular target: T1, peptide 13 (Mus musculus, UniProt P02469); test: Heparin/peptide interaction specificity, competition on coated peptide 13 (Example 4); type: binding; details: 12.5 ug per well of peptide 13 coated, FIG. 8
T1 construct: polypeptide F13 formally represents isolated laminin residues 1171-1188; made in house; host or cells: chemical solid-phase (Merrifield) synthesis, no expression host
Description: (§1) To check whether charge was the main factor in the interaction between heparin and peptides 9 and 13, or whether the heparin structure was also critical to this interaction heparin along with two other sulfated glucosaminoglycans, dextran sulfate and chondroitin sulfate were used in competition experiments. A standard amount of 3.1 μg per well of peptide 9 and 12.5 ug per well of peptide 13 were coated on 96-well plates as described above. […] Wells were treated for two hours with 2 mg/ml BSA in wash buffer. Then, a final volume of 50 μls was added to each well, containing a standard amount of 3H-heparin (50,000 cpm per well) and various amounts of non-radioactiveheparin, dextran sulfate and […]. After incubating for two hours at 37° C., the wells were washed and radioactivity was counted as described above in Example 1. […] Therefore, the structure of heparin is a crucial factor for this interaction.

peptide 9 = molecular target: T2, peptide 9 (Mus musculus, UniProt P02469); test: Heparin/peptide interaction specificity, competition on coated peptide 9 (Example 4); type: binding; details: 3.1 μg per well of peptide 9 coated, FIG. 7
T2 construct: made in house; host or cells: chemical solid-phase (Merrifield) synthesis, no expression host
Description: as §1

[2] = Heparin binding to peptides coated on 96-well plastic plates (Example 2); details: 1 mg/ml to 1 μg/ml, two hours at 37° C., FIG. 5
Description: In order to test the ability of the synthesized peptides (9 and 11-18) to bind to 96-well plastic plates (in which experiments with cultured cell lines can be performed), we did an experiment similar to that described above in Example 1. Stock solutions of peptides 9 and 11-18, laminin and BSA at a maximum concentration of 1 mg/ml were prepared and serially diluted in PBS+NaN3 producing final concentration from 1 mg/ml to 1 μg/ml. Fifty μl from each concentration was coated on the 96-well plates and left to dry overnight at 28° C. Then, wells were treated for two hours with […] of 2 mg/ml BSA in 6 mM phosphate, 100 mM NaCl, 68 μM CaCl2, pH 6.8 (wash buffer) in order to minimize non-specific binding. Next 50 μls of ^3 H-heparin (10 μg/ml) was added (50,000 cpm/well) for two hours at 37° C. The wells were then washed three times with wash buffer containing 0.05% Triton X-100 and finally they were incubated for thirty minutes at 60 C with 200 μl of 0.5 N NaOH and 1% SDS. The amount of ^3 H-heparin bound at each peptide concentration was quantitated as described above in Example 1.

T2 sequence (P02469 662-681 limits assumed): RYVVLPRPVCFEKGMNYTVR

Molecule | endothelial cell adhesion [1] | molar concentration needed for 50% inhibition of ^3 H-heparin binding, relative to heparin (peptide 13) | molar concentration needed for 50% inhibition of ^3 H-heparin binding, relative to heparin (peptide 9) | binding of ^3 H-heparin [2]
CC[C@H](C)[C@H](NC(=O)[C@H](Cc1ccc(O)cc1)NC(=O)CNC(=O)[C@@H]1CCCN1C(=O)[C@H](CC(=O)O)NC(=O)[C@H](CS)NC(=O)[C@@H](N)C(C)C)C(=O)NCC(=O)N[C@@H](CO)C(=O)N[C@@H](CCCNC(=N)N)C(=O)O [Peptide F18, VCDPGYIGSR] (H-VCDPGYIGSR-OH) | potent promoters of endothelial cell adhesion |  |  | 
dermatan sulfate |  | Ten to one hundred times more molar concentration | Ten to one hundred times more molar concentration | 
laminin |  |  |  | bind heparin very well
dextran sulfate |  | Ten to one hundred times more molar concentration | Ten to one hundred times more molar concentration | 
VEGVEGPRCDKCTRGY [Peptide F12, 16-mer, laminin B1 chain aa 1133-1148] | potent promoters of endothelial cell adhesion |  |  | 
